Earlier results in patent publication US20170252421A1 (priority 2014, published 2017).

SMILES: CN(C)C(=N)N=C(N)N [metformin, Metformin]
- patients discontinuing the therapy due to the side effects (oral metformin): up to 5%
- patients experiencing gastrointestinal side effects (oral metformin): Up to 20%
- patients developing vitamin B12 deficiency (patients taking metformin): 77%
- reduction of morbidity and mortality rates (treating insulin resistance): about 30%
